The results in this text go back to US20130345204A1, “SUBSTITUTED BICYCLIC CYCLOALKYL PYRAZOLE LACTAM ANALOGS AS ALLOSTERIC MODULATORS OF MGLUR5 RECEPTORS” (Vanderbilt University, priority 2012, published 2013).

The Emax is the maximal effect, on the per cent scale that the assay sets. The term EC50 denotes the concentration needed to bring the measured effect to its halfway point. Broadly, the melting point is the temperature of the solid-liquid transition. The term pEC50 denotes the EC50 on a negative log10 scale, so that one unit is a factor of ten.

Each structure is given as a SMILES string. Like-named read-outs stand apart in the source and are kept apart here.

In one data set the target is human mGluR5 (Homo sapiens, UniProt P41594). The data set is described as follows: Cell-based functional Ca2+ mobilization assay (FDSS), potentiation of glutamate EC20 response. From the text: Human mGluR5a cDNA in pCMV6-XL6 mammalian expression plasmid was purchased from OriGene Technologies, Inc. (catalogue number SC326357) and subcloned into pcDNA3.1(-). Human embryonic kidney (HEK)293A cells were then transfected with human mGluR5a pcDNA3.1(-) using LipofectAmine-2000 (Invitrogen) and monoclones were selected and tested for functional response using a Ca^2+ mobilization assay. Monoclones were named for the species (“H” for human) plus the location on the plate (e.g. “10H”). […] Cell-lines used were either the H10H or […] cell-lines expressing the human mGluR5 receptor. The following day, the growth medium was removed and the cells were washed with assay buffer containing 1× Hank's balanced salt solution (Invitrogen, Carlsbad, Calif.), 20 mM HEPES, 2.5 mM probenecid, pH 7.4 and left with 20 μL of this reagent. Following this step, the cells were loaded with calcium indicator dye, fluo-4 AM, to a final concentration of 2 μM and incubated for 40-45 min at 37° C. The dye solution was removed and replaced with assay buffer. Cell plates were held for 10-15 min at room temperature and were then loaded into the Functional Drug Screening System 6000 (FDSS 6000, Hamamatsu, Japan). […] Calcium fluorescence measures were recorded as fold over basal fluorescence; raw data was then normalized to the maximal response to glutamate. […] The concentration-response curves of compounds of the present invention, obtained in the presence of EC20 of mGluR5 receptor agonist glutamate to determine positive allosteric modulation, were generated using Microsoft Excel with IDBS XLfit add-ins. The raw data file containing all time points was used as the data source in the analysis template. This was saved by the FDSS as a tab-delimited text file. Data were normalized using a static ratio function (F/F0) for each measurement of the total 350 values per well divided by each well's initial value. […] This is sufficient time to capture the peak amplitude of the cellular Calcium response. […] Each of the three values collected at each concentration of test compound were weighted evenly. Individual values falling outside the 95% prediction limits of the curve fit were automatically excluded from the fit. […] These two methods are in good agreement for curves with a clear plateau at the high concentration range. […] For consistency purposes across the range of potencies observed, all EMax values reported in this application are calculated using the maximum average response at a single concentration. The % EMax value for each compound reported in this application is defined as the maximum % effect obtained in a concentration-response curve of that compound expressed as a percent of the response of a maximally effect concentration of glutamate. […] Table IV below lists specific compounds as well as experimentally determined mGluR5 activity determined in a cell-based. The mGluR5 activity was determined using the metabotropic glutamate receptor activity assays in human embryonic kidney cells as described herein, wherein the human embryonic kidney cells were transfected with human mGluR5. The data in Table III were obtained using the H10H cell-line which expresses recombinant human mGluR5. The compound number corresponds to the compound numbers used in Table I.

Data set [1] deals with amphetamine-induced hyperlocomotion. The data set is described as follows: Reversal of amphetamine-induced hyperlocomotion in rat. The class given is in vivo. The conditions noted are these: male Sprague-Dawley rats; compound p.o.; amphetamine 1 mg/kg s.c. On the procedure:
The study was carried out using male Sprague-Dawley rats weighing 225 g-275 g, between 2-3 months old (Harlan, Inc., Indianapolis, Ind.). They were kept in the animal care facility certified by the American Association for the Accreditation of Laboratory Animal Care (AALAC) under a 12-hour light/dark cycle (lights on: 6 a.m.; lights off: 6 p.m.) and had free access to food and water. The experimental protocols performed during the light cycle were approved by the Institutional Animals Care and Use Committee of Vanderbilt University and conformed to the guidelines established by the National Research Council Guide for the Care and Use of Laboratory Animals.
Locomotor activity was assessed as mean distance traveled (cm) in Smart Open Field locomotor activity test chambers (Hamilton-Kinder, San Diego, Calif.) with 16×16 photobeams with chambers measuring 43.2 cm (Length)×43.2 cm (Width)×30.5 cm (Height) (Med Associates, St. Albans, Vt.). […] At 60 min, all rats were injected subcutaneously with 1 mg/kg amphetamine or vehicle and then monitored for an additional 60 min. Animals are monitored for a total of 120 minutes.
Data are expressed as the mean (±SEM) distance traveled recorded in 5 min intervals over the test period. The data was analyzed using repeated measures analysis of variance (ANOVA) followed by post-hoc testing using Dunnett's test, when appropriate. […]

Setting [2] is: H10H cell-line, maximum % effect as percent of response to maximally effective glutamate, glutamate EC20 present, read-out: Emax (%).
Where [3] appears, read: H10H cell-line, potentiation in presence of glutamate EC20.

Chain of human mGluR5 (P41594 21-1180 isoform P41594-2 limits assumed): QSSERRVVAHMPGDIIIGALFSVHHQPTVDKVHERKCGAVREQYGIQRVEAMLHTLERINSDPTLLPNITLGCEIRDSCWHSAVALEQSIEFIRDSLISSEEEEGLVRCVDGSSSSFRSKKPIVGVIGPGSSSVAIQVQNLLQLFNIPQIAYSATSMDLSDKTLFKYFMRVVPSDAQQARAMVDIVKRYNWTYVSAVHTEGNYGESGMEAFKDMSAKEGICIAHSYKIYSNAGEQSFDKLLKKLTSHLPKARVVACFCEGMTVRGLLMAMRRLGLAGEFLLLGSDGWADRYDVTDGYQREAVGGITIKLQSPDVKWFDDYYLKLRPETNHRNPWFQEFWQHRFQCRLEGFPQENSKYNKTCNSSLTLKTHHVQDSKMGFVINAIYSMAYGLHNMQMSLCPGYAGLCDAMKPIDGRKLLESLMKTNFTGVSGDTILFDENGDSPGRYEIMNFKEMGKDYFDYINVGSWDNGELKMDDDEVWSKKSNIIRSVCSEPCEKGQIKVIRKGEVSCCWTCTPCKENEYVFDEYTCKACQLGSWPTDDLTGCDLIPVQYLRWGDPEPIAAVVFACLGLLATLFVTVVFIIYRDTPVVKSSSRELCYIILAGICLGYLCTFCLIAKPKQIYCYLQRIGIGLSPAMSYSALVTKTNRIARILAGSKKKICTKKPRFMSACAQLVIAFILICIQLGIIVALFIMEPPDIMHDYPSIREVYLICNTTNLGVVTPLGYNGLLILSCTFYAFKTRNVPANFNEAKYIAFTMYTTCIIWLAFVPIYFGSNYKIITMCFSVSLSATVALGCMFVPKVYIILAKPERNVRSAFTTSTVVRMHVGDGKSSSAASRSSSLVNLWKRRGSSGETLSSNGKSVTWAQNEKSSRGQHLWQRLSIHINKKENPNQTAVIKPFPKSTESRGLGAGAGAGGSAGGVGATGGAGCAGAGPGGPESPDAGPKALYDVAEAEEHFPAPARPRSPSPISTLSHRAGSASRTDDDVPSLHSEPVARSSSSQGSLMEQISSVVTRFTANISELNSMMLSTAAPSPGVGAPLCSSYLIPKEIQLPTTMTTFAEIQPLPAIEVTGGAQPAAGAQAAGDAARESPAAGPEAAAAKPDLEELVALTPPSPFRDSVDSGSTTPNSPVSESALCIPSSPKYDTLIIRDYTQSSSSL

With `O=C1c2cc(COc3ccccc3)nn2CCN1C1CCOC1` (racemic) [Compound 12], the Emax at human mGluR5 (setting [2]) was 25%. Also, the EC50 on human mGluR5 (setting [3]) was at least 10 µM.
For `O=C1c2cc(COc3ccccc3)nn2CCN1C1CCCOC1` (racemic) [Compound 20], in that order: 52% and at least 10 µM.
Regarding `O=C1c2cc(COc3ccccc3)nn2CCCN1CC1CC1(F)F` (racemic) [Compound 25], the melting point stood at 102.2 °C. Also, on human mGluR5 (setting [2]), the Emax stood at 58%. For the same compound, the EC50 at human mGluR5 (setting [3]) was 0.389 µM.
Turning to `O=C1c2cc(COc3ccccc3)nn2CCN1CC1CC1(F)F` (stereo in doubt) [Compound 2, (S)-5-((2,2-difluorocyclopropyl)methyl)-2-(phenoxymethyl)-6,7-dihydropyrazolo[1,5-a]pyrazin-4(5H)-one], in data set [1], the “reversal of amphetamine-induced hyperlocomotion” value was “effective in reducing amphetamine-induced hyperlocomotion”.
With `O=C1c2cc(COc3ccccc3)nn2CCN1C[C@@H]1CC1(F)F` [Compound 2, (S)-5-((2,2-difluorocyclopropyl)methyl)-2-(phenoxymethyl)-6,7-dihydropyrazolo[1,5-a]pyrazin-4(5H)-one], the Emax at human mGluR5 (setting [2]) was 65%. Also, the concentration for a half-maximal effect (EC50) on human mGluR5 (setting [3]) is 0.38 µM.
For `C[C@@H]1Cn2nc(COc3ccccc3)cc2C(=O)N1CC1CC1(F)F` (stereo partly shown) [Compound 4], in that order: 72% and 0.871 µM.
Take `C[C@@H]1Cn2nc(COc3ccccc3)cc2C(=O)N1CC1CCC1` [Compound 6]: the Emax on human mGluR5 (setting [2]) amounted to 76%. Also, the EC50 on human mGluR5 (setting [3]) was 0.0912 µM.
Take `O=C1c2cc(COc3ccccc3)nn2CCN1C1CCCC1` [Compound 7]: on human mGluR5 (setting [2]), the Emax worked out at 48%. The EC50 at human mGluR5 (setting [3]) is 0.195 µM.
For the compound `O=C1c2cc(COc3ccccc3)nn2CCN1C1COC1` [Compound 8], the maximum response (Emax) on human mGluR5 (setting [2]) was found to be 30%. For the same compound, the EC50 at human mGluR5 (setting [3]) was over 10 µM.
For `O=C1c2cc(COc3ccccc3)nn2CCN1C1CCC1` [Compound 9], in that order: 29% and 0.324 µM.
For `O=C1c2cc(COc3ccccc3)nn2CCN1CC1CC(F)(F)C1` [Compound 10], in that order: 72% and 0.646 µM.
The like results for `O=C1c2cc(COc3ccccc3)nn2CCN1C1CCOCC1` [Compound 11] were, in that order, 46% and at least 10 µM.
Regarding `O=C1c2cc(COc3ccccc3)nn2CCN1C1CCCCC1` [Compound 13, 5-cyclohexyl-2-(phenoxymethyl)-6,7-dihydropyrazolo[1,5-a]pyrazin-4(5H)-one], the Emax on human mGluR5 (setting [2]) was 58%. Also, the EC50 at human mGluR5 (setting [3]) is 0.145 µM.
For `O=C1c2cc(COc3cccc(F)c3)nn2CCN1C[C@H]1CC1(F)F` [Compound 14, (R)-5-((2,2-difluorocyclopropyl)methyl)-2-((3-fluorophenoxy)methyl)-6,7-dihydropyrazolo[1,5-a]pyrazin-4(5H)-one], in that order: 51% and 0.158 µM.
For the compound `CC1(C)CCC(N2CCn3nc(COc4ccccc4)cc3C2=O)CC1` [Compound 16], on human mGluR5 (setting [2]), the Emax worked out at 71%. Also, at human mGluR5 (setting [3]), the EC50 was 0.0977 µM.
For `O=C1c2cc(COc3ccccc3)nn2CCN1C1Cc2ccccc2C1` [Compound 17], in that order: 77% and 0.0589 µM.
The like results for `O=C1c2cc(COc3ccccc3)nn2CCN1CC1CCCCC1` [Compound 18] were, in that order, 79% and 0.0525 µM.
With `O=C1c2cc(COc3cccc(F)c3)nn2CCN1C[C@@H]1CC1(F)F` [Compound 21], the Emax on human mGluR5 (setting [2]) amounted to 65%. On human mGluR5 (setting [3]), the EC50 was 0.11 µM.
Compound `O=C1c2cc(COc3ccccc3)nn2CCCN1CC1CC1` [Compound 22, 5-(cyclopropylmethyl)-2-(phenoxymethyl)-5,6,7,8-tetrahydro-4H-pyrazolo[1,5-a][1,4]diazepin-4-one] returned a melting point of 126.4 °C. Further, the Emax on human mGluR5 (setting [2]) amounted to 59%. The EC50 at human mGluR5 (setting [3]) was 0.38 µM.
The like results for `CC1CCn2nc(COc3ccccc3)cc2C(=O)N1CC1CC1` (stereo not shown) [Compound 23] were, in that order, 68.6 °C, 57% and 0.398 µM.
The like results for `CC1(C)CN(CC2CC2)C(=O)c2cc(COc3ccccc3)nn2C1` [Compound 24] were, in that order, 96.5 °C, 38% and at least 10 µM.
For `CC1CN(CC2CC2)C(=O)c2cc(COc3ccccc3)nn2C1` (stereo not shown) [Compound 28], in that order: 67.4 °C, 30% and over 30.2 µM.
In the case of `CC1(CN2CCn3nc(COc4ccccc4)cc3C2=O)COC1` [Compound 31], on human mGluR5 (setting [2]), the Emax came out at 71%. The EC50 on human mGluR5 (setting [3]) is 1.1 µM.
For the compound `O=C1c2cc(COc3ccccc3)nn2CCN1CC1CC(F)(F)C1` [Compound 32], the “Emax (%)” value on human mGluR5 (H10H cell-line, maximum % effect as percent of response to maximally effective glutamate, glutamate EC20 present) worked out at 73%. Further, on human mGluR5 (setting [3]), the pEC50 is given as 6.19.
Consider `O=C1c2cc(COc3ccccc3)nn2CCN1[C@H]1CCCNC1` [Compound 33], for which the Emax at human mGluR5 worked out at 19%. The EC50 at human mGluR5 (setting [3]) is over 30.2 µM.
For the compound `O=C1c2cc(COc3ccccc3)nn2CCN1[C@H]1CCNC1` [Compound 34], on human mGluR5 (setting [2]), the Emax is 24%. Further, the EC50 at human mGluR5 (setting [3]) was over 30.2 µM.
The like results for `O=C1c2cc(COc3ccccc3)nn2CCN1C1CCNCC1` [Compound 37] were, in that order, 22% and over 30.2 µM.
